Laboratory results taken from paper PMC3634732, “Chemical Chaperones Exceed the Chaperone Effects of RIC-3 in Promoting Assembly of Functional α7 AChRs” (PLoS ONE, 2013).

How the values were obtained:
Rat α7 AChRs = settings: cited from earlier work
[1] = test system: α7 AChRs in primary cultures of rat hippocampal neurons; test: 125I αBgt binding to rat hippocampal neuron cultures; type: cell-based; settings: for Increase of α7 AChR expression: VPA for 5 days
[2] = test system: endogenous α7 AChRs in SH-SY5Y neuroblastoma cell line; test: Surface 125I αBgt binding in SH-SY5Y cells treated with chemical chaperones; type: cell-based, human
[3] = molecular target: T1, α7 AChRs on the surface of cells in the α7/RIC-3 line (Homo sapiens, UniProt P36544); test: Upregulation of surface 125I αBgt binding in the α7/RIC-3 cell line; type: cell-based; settings: single chemical chaperone
T1 construct: expressed in transfected cells
T1 sequence (P36544 23-502): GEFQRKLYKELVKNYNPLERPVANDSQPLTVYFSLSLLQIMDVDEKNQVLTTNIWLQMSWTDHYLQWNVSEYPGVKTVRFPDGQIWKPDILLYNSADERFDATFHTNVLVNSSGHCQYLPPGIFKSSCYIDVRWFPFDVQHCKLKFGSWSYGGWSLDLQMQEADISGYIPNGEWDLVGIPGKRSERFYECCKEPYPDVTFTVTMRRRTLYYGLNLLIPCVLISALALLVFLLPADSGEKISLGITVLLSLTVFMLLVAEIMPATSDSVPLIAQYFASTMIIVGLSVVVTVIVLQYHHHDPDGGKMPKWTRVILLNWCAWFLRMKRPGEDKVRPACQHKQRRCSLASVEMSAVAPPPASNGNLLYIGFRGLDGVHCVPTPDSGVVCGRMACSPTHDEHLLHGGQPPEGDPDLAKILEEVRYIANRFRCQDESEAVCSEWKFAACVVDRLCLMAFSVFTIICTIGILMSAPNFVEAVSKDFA

α7/RIC-3 cell line = test: Tolerability of chemical chaperones in α7/RIC-3 culture; type: cell-based, human; settings: 6 mM, applied for longer periods than a few days

| SMILES | EC50 (Rat α7 AChRs) [µM] | Effect on 125I αBgt binding ([1]; rat hippocampal neurons (data not shown)) | Increase of 125I αBgt binding to the cell surface ([2]; 24 hours, 10 µM) [fold] | Increase of α7 AChRs in the cell surface vs control ([2]; 24 hours, 300 µM) [fold] | Increase in expression of α7 AChRs on the cell surface, maximum ([2]; concentration-dependent) | Expression of α7 AChRs on the cell surface [3] | Toxicity in culture (α7/RIC-3 cell line) | Increase of α7 AChR expression ([1]; at 20 days in culture) [%] | Increase of α7 AChR expression ([1]; cultures only 1 week old) [%] | Increase of 125I αBgt binding ([1]; long term treatment of primary cultures) [%] | Concentration giving maximum upregulation ([1]; rat hippocampal neurons) [mM] | Increase of α7 expression ([2]; 100 µM) [fold] |
| --- | --- | --- | --- | --- | --- | --- | --- | --- | --- | --- | --- | --- |
| CC(=O)OCC[N+](C)(C)C [ACh] | 280 | – | – | – | – | – | – | – | – | – | – | – |
| O=C(O)CCCc1ccccc1 [PBA, 4-phenylbutyric acid] | – | ineffective | 3 | 7.8 | up to 7.8 fold | greatly increased | toxic when applied for longer periods | – | – | – | – | – |
| CCCC(CCC)C(=O)O [VPA, valproic acid] | – | – | – | – | – | greatly increased | – | 57 | 68 | 60 | 0.5 | 7.3 |
